Like-named read-outs stand apart in the source and are kept apart here.
What was measured:
[1] = system: zebrafish embryos and larvae; details: for Maximum-tolerated concentration (MTC): highest concentration with no phenotypic abnormalities, followed to 9 dpf
Description: Zebrafish embryos of the AB wild-type strain (originally obtained from the Zebrafish International Resource Center, Eugene, Oregon, USA) were raised at 28°C. Zebrafish husbandry, embryo collection, and embryo and larva maintenance were performed as described, [21]. Toxicity assays were standardly performed in 24-well microtiter plates (wrapped with Parafilm to limit solvent evaporation) using 10 embryos per well in 1 ml of 0.3× Danieau's medium (17 mM NaCl, 2 mM KCl, 0.12 mM MgSO4, 1.8 mM Ca(NO3)2 and 1.5 mM HEPES, pH 7.6). Each experiment was repeated 3 times for a total of 30 embryos or larvae analyzed per solvent per developmental staged tested. Data were only recorded for experiments in which the percentage of normal embryos or larvae in the control group was at least 90%. […] In determining the maximum tolerated concentration (MTC) for each solvent and carrier, all post-exposure embryos and larvae were allowed to develop in larva medium to 9 dpf, so as to detect any deleterious effects appearing after this 24-hour window. Solvents and carriers were obtained from the following suppliers: acetone (Chemlab, Zedelgem, Belgium), acetonitrile (Acros Organics, Geel, Belgium), albumin (BSA, Sigma-Aldrich, Bornem, Belgium), butanone (Riedel-de Haën, Seelze, Germany), cyclodextrin (2- hydroxypropyl-beta-cyclodextrin, Sigma-Aldrich), dimethyl formamide (Acros), DMSO (Agros), ethanol (Fisher Scientific, Doornik, Belgium), glycerol (Acros), isopropanol (Chemlab), methanol (Chemlab), polyethylene glycol-400 (Fluka, Bornem, Belgium), propylene glycol (Certa, Eigenbrakel, Belgium), solketal (Merck, Overijse, Belgium). Statistical analyses were done using chi-square in Microsoft Excel.
Twelve solvents and 2 carriers – chosen based solely on their potential utility for the solubilization and delivery of a structurally diverse range of small molecules – were analyzed for their effects on zebrafish embryos and larvae. The solvents included acetone, acetonitrile, butanone, dimethyl formamide, DMSO, ethanol, glycerol, isopropanol, methanol, polyethylene glycol (PEG-400), propylene glycol, and solketal, and the carriers included albumin (BSA) and cyclodextrin (2-hydroxypropyl-beta-cyclodextrin, or HPBCD). […] For this initial study, the effects of a 24-hour exposure to each solvent and carrier was analyzed using embryos and larvae at the following developmental stages: 2–4 cell, 4 hours-post fertilization (hpf), and 1, 2, 3, 4, and 7 days post-fertilization (dpf).

[2] = system: early embryos; parameters: method as in PMID 18031801; details: solutions containing between 5 and 10% of this solvent; cited from earlier work

SMILES: CC(O)CO (stereo not shown) [Propylene glycol]
- Maximum-tolerated concentration (MTC) ([1]; exposure for 24 hours beginning at 1 dpf): >2.5%
- Maximum-tolerated concentration (MTC) ([1]; exposure for 24 hours beginning at 2 dpf): >2.5%
- Maximum-tolerated concentration (MTC) ([1]; exposure for 24 hours beginning at 2–4 cell stage): >2.5%
- Maximum-tolerated concentration (MTC) ([1]; exposure for 24 hours beginning at 3 dpf): 2%
- Maximum-tolerated concentration (MTC) ([1]; exposure for 24 hours beginning at 4 dpf): 1.5%
- Maximum-tolerated concentration (MTC) ([1]; exposure for 24 hours beginning at 4 hpf): >2.5%
- Maximum-tolerated concentration (MTC) ([1]; exposure for 24 hours beginning at 5 dpf): >2.5%
- Maximum-tolerated concentration (MTC) ([1]; exposure for 24 hours beginning at 7 dpf): 1.5%
- MTC / tolerated concentration ([1]; over all or most developmental stages analyzed, 24-hour exposure): at least 2.5%
- Toxicity of brief exposures to cryoprotectant solutions [2]: toxic

— PMC3474771, “Evaluation of 14 Organic Solvents and Carriers for Screening Applications in Zebrafish Embryos and Larvae” (PLoS ONE, 2012)
